From patent US6953783B1, “Modulation of gene expression by combination therapy” (MethylGene, Inc., priority 1998, dated 2005)

How the values were obtained:
Type in all cases: cell-based, human
DNA MeTase protein [1] = test: DNA MeTase protein levels by Western blotting in A549 cells; conditions: 20, 40 or 80 nM with lipofectin, 4 h on day 0 and day 1, harvest day 2
Text: (§1) MG88 was next tested for an ability to inhibit DNA MeTase mRNA in two human neoplastic cells, A549 (human non-small cell lung carcinoma cells) and T24 (human bladder cancer cells). […] MG208 was modified as follows: A equals 2′-deoxyriboadenosine; C equals 2′-deoxyribocytidine; G equals 2′-deoxyriboguanosine; T equals 2′-deoxyribothymidine; A equals riboadenosine; U equals uridine; C equals ribocytidine; and G equals riboguanosine. The underlined bases were 2′-methoxyribose substituted nucleotides. Non-underlined bases indicate deoxyribose nucleosides. The backbone of MG208 consisted of a phosphorothioate linkage between adjoining nucleotides.
The MG88 and MG208 oligonucleotides were diluted to the desired concentration from a 0.1 mM stock solution in the transfection media. Cells were exposed to oligonucleotide plus lipofectin (or lipofectin only) for four hours on day 0 and four hours on day 1 (after each four hour treatment, cells were returned to complete media). On day 2 (i.e., 48 hours after the first treatment on day 0), cells were harvested, whole cell lysates were prepared, and DNA MeTase protein levels were analyzed by Western blotting analysis with a DNA MeTase-specific rabbit polyclonal antibody (generated according to standard techniques of a glutathione S -transferase fusion protein containing the first 10 kDa amino terminus from DNA methyltransferase protein). […]

DNA MeTase protein [2] = test: DNA MeTase protein levels by Western blotting in T24 cells
Text: as §1
The MG88 and MG208 oligonucleotides were diluted to the desired concentration from a 0.1 mM stock solution in the transfection media. Cells were exposed to oligonucleotide plus lipofectin (or lipofectin only) for four hours on day 0 and four hours on day 1 (after each four hour treatment, cells were returned to complete media). On day 2 (i.e., 48 hours after the first treatment on day 0), cells were harvested, whole cell lysates were prepared, and DNA MeTase protein levels were analyzed by Western blotting analysis with a DNA MeTase-specific rabbit polyclonal antibody (generated according to standard techniques of a glutathione S -transferase fusion protein containing the first 10 kDa amino terminus from DNA methyltransferase protein). […] Equal loading of all lanes was confirmed by blotting for α-actin protein levels with an actin-specific rabbit polyclonal antibody (commercially available from Santa Cruz Biotech., Santa Cruz, Calif.).
Next, to determine whether de novo methylation and silencing of the re-expressed p16^ink4A gene occurred when DNA MeTase returned to normal levels, T24 cells were transfected for 10 consecutive days with either 40 or 75 nM or MG88 or MG208. […] Cell lysates of the T24 cells transfected for ten days were analyzed by Western blotting analysis for expression of DNA MeTase protein,p16^ink4A protein, and actin protein (as a control for equal loading) 3, 5, and 7 days after MG88 transfection.

p21^WAF1 = p21^WAF1 protein levels by Western blotting in T24 cells
Protocol: Another member of the cyclin-dependent kinase inhibitor (CDKI) family, p21^WAF1, inhibits a wide range of cyclin/CDK complexes involved in G1 and S phase progression (Tam et al. (1994) Cancer Res. 54: 5816-5820; Baghdassarian and French (1996) Hematol. Cell Ther. 88: 313-323; Gotz et al. (1996) Oncogene 13: 391-398). […] To do this, DNA MeTase, p21^WAF1, and α-actin protein levels were measured by Western blotting analysis in T24 cells that had been treated for either 24 hours (i.e., one 4 hour transfection time) or 48 hours (i.e., two […] transfections 24 hours apart) with either 40 nM or 75 nM of either MG88 or MG208.
T24 cells were also treated for 24 hours (i.e., four hour transfection) with lipofectin only, or lipofectin plus 20, 40, or 80 nM of MG88 or MG208. After treatment, cell lysates were prepared and analyzed by Western blotting analysis with α-actin-specific antibody or p21-specific antibody.

Substance: 5′-AAGCAT GAG CAC CGT TCUCC-3′ [MG88]
- reduction in DNA MeTase protein levels (DNA MeTase protein [1]): dose-dependent reduction in DNA MeTase protein levels
- reduction in DNA MeTase protein levels (DNA MeTase protein [2]; 20, 40 or 80 nM with lipofectin, 4 h on day 0 and day 1, harvest day 2): dose-dependent reduction in DNA MeTase protein levels
- return of DNA MeTase protein to control levels post-treatment (DNA MeTase protein [2]; after 10 day treatment with 40 nM): 5 to 7 days
- p21^WAF1 protein level (p21^WAF1; 40 nM or 75 nM, 24 or 48 hours): increased directly with the reduction in DNA MeTase
- p21^WAF1 protein induction, dose response (p21^WAF1; 20, 40 or 80 nM, 24 hours): induced p21^WAF1 in a dose dependent fashion
